Reference: ChEMBL document CHEMBL3991601, “The target landscape of clinical kinase drugs” (Science, 2017)
Active and inactive are the calls of the source. Rule as the data show it, for most assays here: actives have a measured Kd and inactives only a lower limit.

Assays:
[1] = target: ATP-dependent RNA helicase DDX3X (Homo sapiens, UniProt O00571)
[2] = target: Casein kinase I isoform epsilon (Homo sapiens, UniProt P49674)
[3] = target: Cyclin-dependent kinase 13 (Homo sapiens, UniProt Q14004)
[4] = target: T1, Ribosyldihydronicotinamide dehydrogenase [quinone] (Homo sapiens, UniProt P16083)
T1 sequence (P16083 whole entry): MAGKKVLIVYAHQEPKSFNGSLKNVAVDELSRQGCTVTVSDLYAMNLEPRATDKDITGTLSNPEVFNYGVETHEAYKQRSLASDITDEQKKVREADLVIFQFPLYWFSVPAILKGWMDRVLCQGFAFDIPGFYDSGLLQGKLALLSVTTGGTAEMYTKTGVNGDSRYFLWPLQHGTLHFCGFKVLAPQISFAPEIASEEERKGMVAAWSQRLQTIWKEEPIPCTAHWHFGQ

[5] = target: Protein-tyrosine kinase 6 (Homo sapiens, UniProt Q13882)
Sequence of Protein-tyrosine kinase 6 (Q13882 whole entry): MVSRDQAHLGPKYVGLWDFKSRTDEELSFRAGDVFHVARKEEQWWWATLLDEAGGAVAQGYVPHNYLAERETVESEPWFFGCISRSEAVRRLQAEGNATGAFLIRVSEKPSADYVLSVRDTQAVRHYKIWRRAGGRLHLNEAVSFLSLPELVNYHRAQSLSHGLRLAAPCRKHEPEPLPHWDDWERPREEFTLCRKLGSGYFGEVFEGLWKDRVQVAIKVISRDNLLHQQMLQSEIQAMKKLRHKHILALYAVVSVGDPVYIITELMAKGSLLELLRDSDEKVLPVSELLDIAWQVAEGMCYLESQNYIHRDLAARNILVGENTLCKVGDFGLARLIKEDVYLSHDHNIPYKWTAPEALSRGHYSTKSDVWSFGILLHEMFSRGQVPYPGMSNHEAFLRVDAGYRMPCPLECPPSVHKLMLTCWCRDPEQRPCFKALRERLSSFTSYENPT

[6] = target: Cyclin-dependent kinase 6 (Homo sapiens, UniProt Q00534)
Sequence of Cyclin-dependent kinase 6 (Q00534 whole entry): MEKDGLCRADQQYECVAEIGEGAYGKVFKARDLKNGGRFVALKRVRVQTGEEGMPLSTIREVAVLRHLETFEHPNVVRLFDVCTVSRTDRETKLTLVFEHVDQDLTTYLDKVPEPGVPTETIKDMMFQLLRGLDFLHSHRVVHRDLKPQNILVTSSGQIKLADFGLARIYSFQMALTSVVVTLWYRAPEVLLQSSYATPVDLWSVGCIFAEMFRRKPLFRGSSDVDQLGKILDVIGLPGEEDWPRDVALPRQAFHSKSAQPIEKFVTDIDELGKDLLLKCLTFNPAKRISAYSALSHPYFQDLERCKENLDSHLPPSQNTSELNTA

[7] = target: T2, Mitogen-activated protein kinase kinase kinase 5 (Homo sapiens, UniProt Q99683)
T2 sequence (Q99683 whole entry): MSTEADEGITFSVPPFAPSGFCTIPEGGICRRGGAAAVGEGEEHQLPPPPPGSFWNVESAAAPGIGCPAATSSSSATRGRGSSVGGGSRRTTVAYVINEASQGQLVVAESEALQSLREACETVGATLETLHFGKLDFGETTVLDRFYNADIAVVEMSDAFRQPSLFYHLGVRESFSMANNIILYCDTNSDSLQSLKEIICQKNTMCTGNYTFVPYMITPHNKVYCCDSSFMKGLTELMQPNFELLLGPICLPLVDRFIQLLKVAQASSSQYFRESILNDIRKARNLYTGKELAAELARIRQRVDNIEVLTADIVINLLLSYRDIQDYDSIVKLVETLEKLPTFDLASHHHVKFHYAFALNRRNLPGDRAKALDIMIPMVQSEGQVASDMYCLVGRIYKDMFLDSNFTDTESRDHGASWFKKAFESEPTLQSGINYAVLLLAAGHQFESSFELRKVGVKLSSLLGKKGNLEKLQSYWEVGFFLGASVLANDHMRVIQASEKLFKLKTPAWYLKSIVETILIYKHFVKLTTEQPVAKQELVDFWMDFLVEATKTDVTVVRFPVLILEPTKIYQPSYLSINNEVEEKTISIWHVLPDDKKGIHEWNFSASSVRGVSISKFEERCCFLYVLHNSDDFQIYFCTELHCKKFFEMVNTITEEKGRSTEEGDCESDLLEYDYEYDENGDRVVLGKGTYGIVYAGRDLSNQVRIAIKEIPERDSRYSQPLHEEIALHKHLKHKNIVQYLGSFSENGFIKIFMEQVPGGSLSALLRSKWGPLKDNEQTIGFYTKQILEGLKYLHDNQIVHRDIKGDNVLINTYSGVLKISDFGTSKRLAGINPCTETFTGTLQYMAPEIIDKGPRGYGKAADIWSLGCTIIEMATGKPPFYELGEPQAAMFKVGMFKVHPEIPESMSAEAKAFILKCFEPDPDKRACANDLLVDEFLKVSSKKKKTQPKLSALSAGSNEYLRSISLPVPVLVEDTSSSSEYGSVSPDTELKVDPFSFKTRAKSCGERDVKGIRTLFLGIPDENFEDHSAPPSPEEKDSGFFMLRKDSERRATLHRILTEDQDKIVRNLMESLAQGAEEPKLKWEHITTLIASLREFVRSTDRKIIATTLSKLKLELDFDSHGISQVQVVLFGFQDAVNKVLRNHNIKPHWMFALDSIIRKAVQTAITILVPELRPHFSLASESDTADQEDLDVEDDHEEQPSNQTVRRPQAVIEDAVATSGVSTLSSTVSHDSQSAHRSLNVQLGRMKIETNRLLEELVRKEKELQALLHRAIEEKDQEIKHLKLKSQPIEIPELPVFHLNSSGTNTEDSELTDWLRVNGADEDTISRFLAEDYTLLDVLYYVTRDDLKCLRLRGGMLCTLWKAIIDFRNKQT

[8] = target: Protein kinase C delta type (Homo sapiens, UniProt Q05655)
Sequence of Protein kinase C delta type (Q05655 whole entry): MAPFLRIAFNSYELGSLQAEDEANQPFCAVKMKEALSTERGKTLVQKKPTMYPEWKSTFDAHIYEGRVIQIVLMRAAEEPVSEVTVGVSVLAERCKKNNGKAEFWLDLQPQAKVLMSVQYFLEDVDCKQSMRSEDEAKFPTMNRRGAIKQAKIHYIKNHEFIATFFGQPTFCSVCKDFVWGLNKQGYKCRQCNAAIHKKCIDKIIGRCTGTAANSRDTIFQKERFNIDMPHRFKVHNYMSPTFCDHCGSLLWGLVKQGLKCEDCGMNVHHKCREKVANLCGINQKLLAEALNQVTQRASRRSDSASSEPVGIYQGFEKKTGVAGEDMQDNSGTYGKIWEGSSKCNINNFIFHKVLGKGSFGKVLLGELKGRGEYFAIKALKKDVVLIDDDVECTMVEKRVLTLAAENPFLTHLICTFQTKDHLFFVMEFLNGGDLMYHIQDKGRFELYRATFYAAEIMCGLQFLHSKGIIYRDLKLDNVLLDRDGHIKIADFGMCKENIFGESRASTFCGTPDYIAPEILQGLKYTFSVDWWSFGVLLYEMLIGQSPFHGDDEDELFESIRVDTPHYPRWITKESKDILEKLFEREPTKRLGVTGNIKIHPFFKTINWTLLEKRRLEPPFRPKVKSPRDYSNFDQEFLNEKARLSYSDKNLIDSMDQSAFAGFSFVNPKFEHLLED

[9] = target: T3, Serine/threonine-protein kinase TAO1 (Homo sapiens, UniProt Q7L7X3)
T3 sequence (Q7L7X3 whole entry): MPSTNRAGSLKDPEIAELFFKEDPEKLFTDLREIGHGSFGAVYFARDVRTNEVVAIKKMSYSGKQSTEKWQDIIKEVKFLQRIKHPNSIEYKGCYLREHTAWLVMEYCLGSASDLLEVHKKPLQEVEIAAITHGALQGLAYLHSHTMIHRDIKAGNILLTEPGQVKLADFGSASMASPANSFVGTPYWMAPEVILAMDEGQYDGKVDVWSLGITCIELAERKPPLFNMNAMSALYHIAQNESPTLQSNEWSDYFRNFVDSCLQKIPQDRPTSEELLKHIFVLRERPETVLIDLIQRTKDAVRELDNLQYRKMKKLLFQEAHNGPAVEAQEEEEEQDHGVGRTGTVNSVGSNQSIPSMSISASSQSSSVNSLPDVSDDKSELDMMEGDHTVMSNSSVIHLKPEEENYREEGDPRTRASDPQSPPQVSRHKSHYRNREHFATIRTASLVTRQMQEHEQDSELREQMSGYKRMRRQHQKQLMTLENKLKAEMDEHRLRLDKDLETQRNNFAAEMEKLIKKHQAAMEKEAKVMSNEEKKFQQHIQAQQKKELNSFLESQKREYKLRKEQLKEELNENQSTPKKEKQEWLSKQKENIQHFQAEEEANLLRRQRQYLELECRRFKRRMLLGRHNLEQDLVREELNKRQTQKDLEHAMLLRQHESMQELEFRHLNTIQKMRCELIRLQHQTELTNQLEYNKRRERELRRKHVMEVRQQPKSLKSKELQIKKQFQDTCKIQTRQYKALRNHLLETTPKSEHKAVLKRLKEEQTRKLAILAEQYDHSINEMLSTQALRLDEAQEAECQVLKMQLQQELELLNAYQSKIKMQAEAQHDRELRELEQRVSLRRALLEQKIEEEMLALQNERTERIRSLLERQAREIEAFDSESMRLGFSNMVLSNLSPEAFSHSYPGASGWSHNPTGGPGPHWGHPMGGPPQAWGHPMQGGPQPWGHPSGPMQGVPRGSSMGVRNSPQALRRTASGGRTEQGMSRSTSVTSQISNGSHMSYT
Also: in the data inactive means no Kd found up to 30 µM.

Sequence of ATP-dependent RNA helicase DDX3X (O00571 whole entry, canonical isoform): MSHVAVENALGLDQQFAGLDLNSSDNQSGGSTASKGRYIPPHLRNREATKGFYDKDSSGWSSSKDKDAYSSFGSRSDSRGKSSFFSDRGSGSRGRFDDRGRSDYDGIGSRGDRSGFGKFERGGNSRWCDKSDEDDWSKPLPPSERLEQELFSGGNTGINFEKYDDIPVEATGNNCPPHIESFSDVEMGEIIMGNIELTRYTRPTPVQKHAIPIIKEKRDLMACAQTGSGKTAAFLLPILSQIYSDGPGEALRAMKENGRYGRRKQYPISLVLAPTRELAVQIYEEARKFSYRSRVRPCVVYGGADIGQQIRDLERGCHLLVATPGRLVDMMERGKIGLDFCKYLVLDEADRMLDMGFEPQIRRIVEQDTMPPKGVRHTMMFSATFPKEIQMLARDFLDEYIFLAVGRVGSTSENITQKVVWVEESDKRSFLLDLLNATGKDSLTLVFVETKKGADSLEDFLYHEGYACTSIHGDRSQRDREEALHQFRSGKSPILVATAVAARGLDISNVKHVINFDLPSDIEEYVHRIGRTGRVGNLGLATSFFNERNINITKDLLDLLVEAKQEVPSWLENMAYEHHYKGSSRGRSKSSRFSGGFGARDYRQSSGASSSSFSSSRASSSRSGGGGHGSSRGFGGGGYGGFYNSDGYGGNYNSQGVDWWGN
Sequence of Casein kinase I isoform epsilon (P49674 whole entry, canonical isoform): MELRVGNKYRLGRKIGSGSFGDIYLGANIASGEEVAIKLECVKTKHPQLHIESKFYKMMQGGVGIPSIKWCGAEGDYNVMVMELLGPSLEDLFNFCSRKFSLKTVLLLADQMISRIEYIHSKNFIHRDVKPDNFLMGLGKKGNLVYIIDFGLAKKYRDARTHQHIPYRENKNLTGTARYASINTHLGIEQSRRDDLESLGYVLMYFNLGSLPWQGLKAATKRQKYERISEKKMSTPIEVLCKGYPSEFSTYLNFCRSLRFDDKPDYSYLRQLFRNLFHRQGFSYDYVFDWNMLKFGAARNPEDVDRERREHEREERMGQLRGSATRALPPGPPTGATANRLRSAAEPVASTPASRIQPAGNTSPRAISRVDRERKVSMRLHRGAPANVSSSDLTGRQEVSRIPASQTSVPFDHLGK
Sequence of Cyclin-dependent kinase 13 (Q14004 whole entry): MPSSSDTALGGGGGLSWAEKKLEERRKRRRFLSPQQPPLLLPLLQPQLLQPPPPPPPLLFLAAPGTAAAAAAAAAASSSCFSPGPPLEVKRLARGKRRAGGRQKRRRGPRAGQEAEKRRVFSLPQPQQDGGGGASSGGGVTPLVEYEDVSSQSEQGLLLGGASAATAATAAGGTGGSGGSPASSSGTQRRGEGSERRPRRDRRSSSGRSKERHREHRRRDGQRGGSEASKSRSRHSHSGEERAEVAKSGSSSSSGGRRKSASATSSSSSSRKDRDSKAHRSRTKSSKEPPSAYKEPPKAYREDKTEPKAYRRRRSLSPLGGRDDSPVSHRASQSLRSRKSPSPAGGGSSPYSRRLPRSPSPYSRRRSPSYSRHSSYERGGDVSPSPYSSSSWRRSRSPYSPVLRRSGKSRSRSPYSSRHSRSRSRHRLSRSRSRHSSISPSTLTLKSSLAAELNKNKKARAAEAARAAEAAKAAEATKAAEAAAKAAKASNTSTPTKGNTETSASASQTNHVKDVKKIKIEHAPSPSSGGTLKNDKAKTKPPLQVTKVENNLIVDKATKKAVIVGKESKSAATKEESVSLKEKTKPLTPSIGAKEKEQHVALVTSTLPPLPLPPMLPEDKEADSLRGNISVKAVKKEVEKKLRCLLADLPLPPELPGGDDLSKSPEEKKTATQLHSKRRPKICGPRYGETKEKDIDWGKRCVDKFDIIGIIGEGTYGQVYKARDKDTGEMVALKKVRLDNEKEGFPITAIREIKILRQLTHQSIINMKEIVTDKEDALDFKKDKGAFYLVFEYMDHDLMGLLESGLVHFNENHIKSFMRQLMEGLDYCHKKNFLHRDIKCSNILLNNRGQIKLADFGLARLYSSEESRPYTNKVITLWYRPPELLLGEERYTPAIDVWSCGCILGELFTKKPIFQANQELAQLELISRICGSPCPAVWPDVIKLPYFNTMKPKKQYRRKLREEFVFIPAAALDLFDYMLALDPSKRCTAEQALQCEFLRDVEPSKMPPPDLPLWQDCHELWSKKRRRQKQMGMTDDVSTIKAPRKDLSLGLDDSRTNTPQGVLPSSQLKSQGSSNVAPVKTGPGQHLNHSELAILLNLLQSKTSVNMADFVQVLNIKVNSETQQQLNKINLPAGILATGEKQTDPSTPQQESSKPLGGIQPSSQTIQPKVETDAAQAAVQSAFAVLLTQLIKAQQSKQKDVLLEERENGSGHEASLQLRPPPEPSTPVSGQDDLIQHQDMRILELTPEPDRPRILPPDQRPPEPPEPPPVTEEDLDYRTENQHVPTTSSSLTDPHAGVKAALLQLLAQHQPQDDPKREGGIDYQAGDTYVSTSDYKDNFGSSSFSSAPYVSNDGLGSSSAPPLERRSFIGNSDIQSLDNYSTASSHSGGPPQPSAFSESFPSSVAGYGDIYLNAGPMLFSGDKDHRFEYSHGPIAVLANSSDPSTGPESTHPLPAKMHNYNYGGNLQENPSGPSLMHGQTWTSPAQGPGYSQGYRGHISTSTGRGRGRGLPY

| Kd [1] | Kd [2] | Kd [3] | Kd [4] | Kd [5] | Kd [6] | Kd [7] | Kd [8] | Kd [9] | SMILES |
| --- | --- | --- | --- | --- | --- | --- | --- | --- | --- |
| > 30 µM (inactive) | > 30 µM (inactive) | > 30 µM (inactive) | > 30 µM (inactive) | > 30 µM (inactive) | > 30 µM (inactive) | > 30 µM (inactive) | > 30 µM (inactive) | > 30 µM (inactive) | COc1cc2ncnc(Nc3ccc(F)c(Cl)c3)c2cc1NC(=O)/C=C/CN1CCCCC1 [DACOMITINIB ANHYDROUS] |
| > 30 µM (inactive) | > 30 µM (inactive) | > 30 µM (inactive) | > 30 µM (inactive) | > 30 µM (inactive) | > 30 µM (inactive) | > 30 µM (inactive) | 0.067 µM (active) | 3.41 µM (active) | CC[C@@](C)(Nc1ccnc(-c2c[nH]c3ncccc23)n1)C(=O)NCC(F)(F)F [DECERNOTINIB] |
| > 30 µM (inactive) | > 30 µM (inactive) | > 30 µM (inactive) | > 30 µM (inactive) | > 30 µM (inactive) | > 30 µM (inactive) | > 30 µM (inactive) | > 30 µM (inactive) | > 30 µM (inactive) | COc1cc(Nc2ncc(F)c(Nc3ccc4c(n3)N(COP(=O)(O)O)C(=O)C(C)(C)O4)n2)cc(OC)c1OC [FOSTAMATINIB] |
| > 30 µM (inactive) | > 30 µM (inactive) | > 30 µM (inactive) | > 30 µM (inactive) | > 30 µM (inactive) | > 30 µM (inactive) | > 30 µM (inactive) | > 30 µM (inactive) | > 30 µM (inactive) | O=S(=O)(c1cccc2c(O)nccc12)N1CCCNCC1 [HYDROXYFASUDIL] |
| > 30 µM (inactive) | > 30 µM (inactive) | > 30 µM (inactive) | > 30 µM (inactive) | > 30 µM (inactive) | > 30 µM (inactive) | > 30 µM (inactive) | > 30 µM (inactive) | > 30 µM (inactive) | C#Cc1cccc(Nc2ncnc3cc4c(cc23)OCCOCCOCCO4)c1 [ICOTINIB] |
| > 30 µM (inactive) | > 30 µM (inactive) | > 30 µM (inactive) | > 30 µM (inactive) | > 30 µM (inactive) | > 30 µM (inactive) | > 30 µM (inactive) | > 30 µM (inactive) | > 30 µM (inactive) | COc1cc2ncnc3c2cc1OCCCCCN(C)Cc1ccc(Br)cc1N3 [JNJ-26483327] |
| > 30 µM (inactive) | > 30 µM (inactive) | > 30 µM (inactive) | > 30 µM (inactive) | > 30 µM (inactive) | > 30 µM (inactive) | > 30 µM (inactive) | > 30 µM (inactive) | > 30 µM (inactive) | Cc1ccc(C(=O)Nc2ccc(Oc3cc4cnn(C)c4cc3-c3cn[nH]c3)c(F)c2)c(=O)n1-c1ccc(F)cc1 [MERESTINIB] |
| > 30 µM (inactive) | > 30 µM (inactive) | > 30 µM (inactive) | > 30 µM (inactive) | > 30 µM (inactive) | > 30 µM (inactive) | > 30 µM (inactive) | > 30 µM (inactive) | > 30 µM (inactive) | O=C(NOC[C@H](O)CO)c1ccc(F)c(F)c1Nc1ccc(I)cc1F [MIRDAMETINIB] |
| > 30 µM (inactive) | > 30 µM (inactive) | > 30 µM (inactive) | 1.39 µM (active) | > 30 µM (inactive) | > 30 µM (inactive) | > 30 µM (inactive) | > 30 µM (inactive) | > 30 µM (inactive) | COc1cccc2cc(-c3nc([C@H]4CC[C@H](C(=O)O)CC4)n4ncnc(N)c34)[nH]c12 [OSI-027] |
| > 30 µM (inactive) | > 30 µM (inactive) | > 30 µM (inactive) | > 30 µM (inactive) | > 30 µM (inactive) | > 30 µM (inactive) | > 30 µM (inactive) | > 30 µM (inactive) | > 30 µM (inactive) | O=C(Nc1ccc(OC(F)(F)F)cc1)c1sccc1NCc1ccnc2ccccc12 [OSI-930] |
| > 30 µM (inactive) | > 30 µM (inactive) | > 30 µM (inactive) | > 30 µM (inactive) | > 30 µM (inactive) | > 30 µM (inactive) | > 30 µM (inactive) | > 30 µM (inactive) | > 30 µM (inactive) | FC(F)(F)c1ccc(CNc2ccc(Cc3c[nH]c4ncc(Cl)cc34)cn2)cn1 [PEXIDARTINIB] |

| SMILES | Kd [1] | Kd [2] | Kd [3] | Kd [4] | Kd [5] | Kd [6] | Kd [7] | Kd [8] | Kd [9] |
| --- | --- | --- | --- | --- | --- | --- | --- | --- | --- |
| CCc1nc(C(N)=O)c(Nc2ccc(N3CCC(N4CCN(C)CC4)CC3)c(OC)c2)nc1NC1CCOCC1 [GILTERITINIB] | > 30 µM (inactive) | > 30 µM (inactive) | > 30 µM (inactive) | 1.7 µM (active) | > 30 µM (inactive) | > 30 µM (inactive) | > 30 µM (inactive) | > 30 µM (inactive) | > 30 µM (inactive) |
| Cc1c(Cn2c(C)nc3c(C(=O)O)cc(N4CCOCC4)cc32)cccc1C(F)(F)F [GSK-2636771] | > 30 µM (inactive) | > 30 µM (inactive) | > 30 µM (inactive) | > 30 µM (inactive) | > 30 µM (inactive) | > 30 µM (inactive) | > 30 µM (inactive) | > 30 µM (inactive) | > 30 µM (inactive) |
| N#CCNC(=O)c1ccc(-c2ccnc(Nc3ccc(N4CCOCC4)cc3)n2)cc1 [MOMELOTINIB] | > 30 µM (inactive) | > 30 µM (inactive) | > 30 µM (inactive) | > 30 µM (inactive) | > 30 µM (inactive) | 3.36 µM | > 30 µM (inactive) | > 30 µM (inactive) | > 30 µM (inactive) |
| C=CC(=O)Nc1cc(Nc2nccc(-c3cn(C)c4ccccc34)n2)c(OC)cc1N(C)CCN(C)C [OSIMERTINIB] | > 30 µM (inactive) | > 30 µM (inactive) | > 30 µM (inactive) | 3.66 µM (active) | > 30 µM (inactive) | > 30 µM (inactive) | > 30 µM (inactive) | > 30 µM (inactive) | > 30 µM (inactive) |
